We go through one substance from patent US20210267886A1, “Gel-In-Oil Emulsion and Transdermally Absorbed Agent” (Nippon Shokubai Co., Ltd., priority 2018, published 2021).

The subject of this assay is L929 cell-embedded collagen gel (cultured dermis model). Description: Titer evaluation using cultured dermis model (quantification of DNA). The format is cell-based. The method, then:
Ultrapure water was added to a collagen made of pig skin (manufactured by NH Foods Ltd.), and the obtained mixture was stirred overnight at 4° C. to prepare a 1% collagen solution. A L929 cell suspension (obtained by collecting cultured L929 cells and suspending the collected L929 cells in a culture medium) (6×10^5 cells) was centrifuged at 1000 rpm for 3 minutes, and the supernatant was removed by suction. A 20% fetal bovine serum (Fetal Bovine Serum, manufactured by FBS bio sera) was added to a Dulbecco's Modified Eagle Medium (DMEM) (manufactured by Thermo Fisher Scientific Inc.) prepared at a concentration of twice to prepare a 2-fold concentrated DMEM culture medium. L929 cells were suspended in a solution in which the 1% collagen solution and the 2-fold concentrated DMEM culture medium were mixed at a ratio of 1:1. This suspension was added to a 12-well plate at 1 ml/well, and was left to stand in an incubator for 1 hour to allow the suspension to turn into a gel.
A ring made of polycarbonate (outer diameter: 1.4 cm, inner diameter: 1.2 cm, and height: 0.3 cm) was placed on a L929 cell-embedded collagen gel (cultured dermis model) prepared in Synthesis Example 1. 200 μl of the bFGF-containing G/O emulsion described above was added to the inside the ring. 200 μl of DMEM culture medium was added to the outside of the ring, and the gel was placed in an incubator. The culture medium was changed every day, and the amounts of DNA in the L929 cell-embedded collagen gel after 1 day, 3 days, and 5 days were quantified. The quantification of DNA was performed as follows.
A liquid in which 1 ml of 0.25% collagenase solution (manufactured by Wako Pure Chemical Industries, Ltd.) was added to a L929 cell-embedded collagen gel was referred to as liquid E. A liquid in which a gel was dissolved by shaking the gel at 37° C. for around 1 hour was referred to as liquid F. Each sample was centrifuged at 1000 rpm for 3 minutes, and the supernatant was removed by suction. Triton X-100 (manufactured by Sigma) was added to the above-described PBS to prepare 0.1% Triton X-100-containing PBS, and the sample was suspended in 1 ml of the 0.1% Triton X-100-containing PBS. The obtained suspension was frozen at −80° C., and then thawed at room temperature. This operation was repeated 3 times. 180 μl of Hoechst (Hoechst (registered trademark), manufactured by Thermo Fisher Scientific K.K.) was mixed with 20 μl of sample, and the obtained mixture was added in a 96-well black plate. By using Fluorescent DNA Quantitation Kit Cat. #170-2480 (BIO-RAD), the quantification of DNA was performed with fluorescent brightness measurement under the conditions of an excitation filter of 355 nm and an absorption filter of 460 nm. The fluorescent brightness was measured 3 times, and the average was taken to obtain the amount of DNA. The quantification of DNA was performed before the start of the test (0 day), and 1 day, 3 days, 5 days, and 7 days after the start of the test.

Regarding “Comparative Example 3: bFGF (basic fibroblast growth factor) used as it was”, the “Amount of DNA” value (0 Day (before the start of the test)) is 43 ng; the “Amount of DNA” value (After 1 day, 200 μl sample) is listed as 74 ng; the “Amount of DNA” value (After 3 days, 200 μl sample) is 145 ng; the “Amount of DNA” value (After 5 days, 200 μl sample) worked out at 187 ng; the “Amount of DNA” value (After 7 days, 200 μl sample) is recorded as 192 ng.
